Laboratory results as given in ChEMBL document CHEMBL1201862, “PubChem BioAssay data set” (2004).
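Test compounds were applied to cells in 96-well plates for 48 hours at 5 doses. The concentration for 50% growth inhibition is given as GI50.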 Calls of active or inactive are those of the source. Rule as the data show it: active = GI50 up to about 1.1 µM and inactive = higher.

Key:
Test in all cases: NCI anticancer screen, dose series, 48 h
[1] = test system: A549
[2] = test system: ACHN
[3] = test system: DU-145
[4] = test system: HCT-15
[5] = test system: HOP-92
[6] = test system: HT-29
[7] = test system: K562
[8] = test system: M14
[9] = test system: MDA-N
[10] = test system: MOLT-4
[11] = test system: Malme-3M
[12] = test system: NCI-H23
[13] = test system: OVCAR-4
[14] = test system: OVCAR-5
[15] = test system: OVCAR-8
[16] = test system: RPMI-8226
[17] = test system: SF-295
[18] = test system: SK-MEL-28
[19] = test system: SK-MEL-5
[20] = test system: SW-620

Compound | GI50 [1] | GI50 [2] | GI50 [3] | GI50 [4] | GI50 [5] | GI50 [6] | GI50 [7] | GI50 [8] | GI50 [9] | GI50 [10] | GI50 [11] | GI50 [12] | GI50 [13] | GI50 [14] | GI50 [15] | GI50 [16] | GI50 [17] | GI50 [18] | GI50 [19] | GI50 [20]
O=C(Oc1ccccc1)c1cc2cc(CCl)ccc2oc1=O | 25.8 µM (inactive) | 8.99 µM (inactive) | 27.7 µM (inactive) | 31.5 µM | 14.7 µM (inactive) | 24.4 µM (inactive) | 5.61 µM (inactive) | 13.1 µM (inactive) | 19.9 µM (inactive) | 18.8 µM (inactive) | 1.74 µM (inactive) | 15.5 µM (inactive) | 24.8 µM (inactive) | 97.7 µM (inactive) | 47.2 µM (inactive) | 33 µM (inactive) | 32.6 µM (inactive) | 13.3 µM (inactive) | 12.8 µM (inactive) | 61.9 µM (inactive)
O=C(O)CSc1ccccc1C(=O)O | > 100 µM (inactive) | > 100 µM (inactive) | > 100 µM (inactive) | > 100 µM | > 100 µM (inactive) | > 100 µM (inactive) | > 100 µM (inactive) | > 100 µM (inactive) | > 100 µM (inactive) | > 100 µM (inactive) | > 100 µM (inactive) | > 100 µM (inactive) | > 100 µM (inactive) | > 100 µM (inactive) | > 100 µM (inactive) | > 100 µM (inactive) | > 100 µM (inactive) | > 100 µM (inactive) | > 100 µM (inactive) | > 100 µM (inactive)
NCC(=O)Nc1ccc(Cl)cc1C(=O)c1ccc[nH]1 | 63.1 µM (inactive) | > 74 µM (inactive) | > 100 µM (inactive) | 38.5 µM | 15.4 µM (inactive) | 25.5 µM (inactive) | 10.5 µM (inactive) | 99.3 µM (inactive) | 23.4 µM (inactive) | 35.8 µM (inactive) | > 56.4 µM (inactive) | 14.3 µM (inactive) | 21.7 µM (inactive) | 55.6 µM (inactive) | > 56.8 µM (inactive) | 5.57 µM (inactive) | > 100 µM (inactive) | > 93.5 µM (inactive) | 49 µM (inactive) | 13.6 µM (inactive)
Cc1nc2c(N3CCCC3)nc(N3CCNCC3)nc2nc1NCc1ccccc1 | 3.88 µM (inactive) | 5.12 µM (inactive) | 6.52 µM (inactive) | 2.09 µM | 2.33 µM (inactive) | 2.41 µM (inactive) | 2.81 µM (inactive) | 1.94 µM (inactive) | 1.61 µM (inactive) | 2.52 µM (inactive) | 2.04 µM (inactive) | 8.85 µM (inactive) | 7.73 µM (inactive) | 13 µM (inactive) | 3.37 µM (inactive) | 2.11 µM (inactive) | 2.04 µM (inactive) | 1.95 µM (inactive) | 1.65 µM (inactive) | 2.36 µM (inactive)
O=C(O)C1CCCN1Cc1c[nH]c2ccccc12 (stereo not given) | > 100 µM (inactive) | > 100 µM (inactive) | > 100 µM (inactive) | > 100 µM | > 100 µM (inactive) | > 100 µM (inactive) | > 100 µM (inactive) | > 100 µM (inactive) | > 100 µM (inactive) | > 100 µM (inactive) | > 100 µM (inactive) | > 100 µM (inactive) | > 100 µM (inactive) | > 100 µM (inactive) | > 100 µM (inactive) | > 100 µM (inactive) | > 100 µM (inactive) | > 100 µM (inactive) | > 100 µM (inactive) | > 100 µM (inactive)
C=C(OC1C(C)=C2C(C1OC(=O)CCCCCCC)C(C)(OC(C)=O)CC(OC(=O)CCC)C1(O)C2OC(=O)C1(C)O)/C(C)=C/C (stereo not given) | 0.0125 µM (active) | 0.000585 µM (active) | < 0.0001 µM (active) | 0.0316 µM | 0.0125 µM (active) | 0.0125 µM (active) | 0.0125 µM (active) | < 0.0001 µM (active) | < 0.0001 µM (active) | 0.0125 µM (active) | 0.0125 µM (active) | 0.0125 µM (active) | 0.0125 µM (active) | 0.034 µM (active) | 0.0125 µM (active) | 0.0125 µM (active) | 0.0125 µM (active) | 0.0125 µM (active) | 0.0125 µM (active) | 0.0125 µM (active)
COc1ccc(CN2C(=O)CCC/C=C\[C@H]2CI)cc1 | 10 µM (inactive) | 14.3 µM (inactive) | 13.3 µM (inactive) | 12.4 µM | 12.8 µM (inactive) | 9.71 µM (inactive) | 6.97 µM (inactive) | 10.7 µM (inactive) | 13.1 µM (inactive) | 10.1 µM (inactive) | 11.1 µM (inactive) | 15.1 µM (inactive) | 10.9 µM (inactive) | 12.1 µM (inactive) | 14.4 µM (inactive) | 6.97 µM (inactive) | 13.5 µM (inactive) | 12.6 µM (inactive) | 12.6 µM (inactive) | 11.6 µM (inactive)
Cc1ccc(S(=O)(=O)NCCCCC(N)C(=O)O)cc1 (stereo not given) | > 100 µM (inactive) | > 100 µM (inactive) | > 100 µM (inactive) | > 100 µM | > 100 µM (inactive) | > 100 µM (inactive) | > 100 µM (inactive) | > 100 µM (inactive) | > 100 µM (inactive) | > 100 µM (inactive) | > 100 µM (inactive) | > 100 µM (inactive) | > 100 µM (inactive) | > 100 µM (inactive) | > 100 µM (inactive) | > 100 µM (inactive) | > 100 µM (inactive) | > 100 µM (inactive) | > 100 µM (inactive) | > 100 µM (inactive)
CC(=O)N1CCOC12N=NC(C)(C)O2 (stereo not given) | > 100 µM (inactive) | > 100 µM (inactive) | > 100 µM (inactive) | > 100 µM | > 100 µM (inactive) | > 100 µM (inactive) | > 100 µM (inactive) | > 100 µM (inactive) | > 100 µM (inactive) | > 100 µM (inactive) | > 100 µM (inactive) | > 100 µM (inactive) | > 100 µM (inactive) | > 100 µM (inactive) | > 100 µM (inactive) | > 100 µM (inactive) | > 100 µM (inactive) | > 100 µM (inactive) | > 100 µM (inactive) | > 100 µM (inactive)
Cc1sc2[nH]c(=O)oc(=O)c2c1C | > 83.8 µM (inactive) | 97.7 µM (inactive) | > 100 µM (inactive) | > 89.9 µM | > 100 µM (inactive) | > 71.9 µM (inactive) | > 96.4 µM (inactive) | > 61.9 µM (inactive) | 58.2 µM (inactive) | 48.5 µM (inactive) | > 72.1 µM (inactive) | > 100 µM (inactive) | 67.6 µM (inactive) | > 100 µM (inactive) | 65.8 µM (inactive) | 41.2 µM (inactive) | > 77.8 µM (inactive) | > 71.8 µM (inactive) | 48.3 µM (inactive) | > 80.4 µM (inactive)
COC(=O)c1c(O)ccc2c1c1c(n2Cc2ccc(Cl)cc2Cl)C(=O)c2ccccc2C1=O | 5.62 µM (inactive) | 7.85 µM (inactive) | 11.6 µM (inactive) | 5.56 µM | 12.2 µM (inactive) | 17.6 µM (inactive) | 5.9 µM (inactive) | 14.1 µM (inactive) | 12.1 µM (inactive) | 2.27 µM (inactive) | 16 µM (inactive) | 10.5 µM (inactive) | 1.95 µM (inactive) | 19.5 µM (inactive) | 8.99 µM (inactive) | 2.88 µM (inactive) | 11.8 µM (inactive) | 16.2 µM (inactive) | 13.7 µM (inactive) | 13.4 µM (inactive)
CCOC(=O)Cn1nnc2ccc(Nc3nc4ccccc4nc3C(=O)OCC)cc21 | > 100 µM (inactive) | > 100 µM (inactive) | 74.1 µM (inactive) | > 100 µM | 56.2 µM (inactive) | > 100 µM (inactive) | > 100 µM (inactive) | > 100 µM (inactive) | > 100 µM (inactive) | > 100 µM (inactive) | > 100 µM (inactive) | 45.9 µM (inactive) | > 100 µM (inactive) | > 100 µM (inactive) | > 100 µM (inactive) | > 100 µM (inactive) | 34.7 µM (inactive) | > 100 µM (inactive) | > 100 µM (inactive) | > 100 µM (inactive)
O=C(CCc1cc(O)ccc1O)OCCc1ccccc1 | > 100 µM (inactive) | 4.33 µM (inactive) | 19.9 µM (inactive) | 11.1 µM | 2.96 µM (inactive) | 41.1 µM (inactive) | 1.4 µM (inactive) | 23.4 µM (inactive) | 12.7 µM (inactive) | 1.36 µM (inactive) | 12.6 µM (inactive) | 32.7 µM (inactive) | 1.49 µM (inactive) | 27.4 µM (inactive) | 12.7 µM (inactive) | 0.875 µM (active) | 37.5 µM (inactive) | 25.1 µM (inactive) | 22.2 µM (inactive) | 16.3 µM (inactive)
CCN(CC)/[N+]([O-])=N/OCOC(C)=O | > 100 µM (inactive) | > 100 µM (inactive) | > 100 µM (inactive) | > 100 µM | > 100 µM (inactive) | > 100 µM (inactive) | > 100 µM (inactive) | > 100 µM (inactive) | > 100 µM (inactive) | > 100 µM (inactive) | > 100 µM (inactive) | > 100 µM (inactive) | > 100 µM (inactive) | > 100 µM (inactive) | > 100 µM (inactive) | > 100 µM (inactive) | > 100 µM (inactive) | > 100 µM (inactive) | > 100 µM (inactive) | > 100 µM (inactive)
